Measured values taken from ChEMBL document CHEMBL3124779, “Discovery of ABT-267, a pan-genotypic inhibitor of HCV NS5A” (J Med Chem, 2014).
Values after ≈ are worked out from the molar mass of the structure shown.

Tests used:
[1] = AUC in dog at 2.5 mg/kg, po; format: ADME, organism-based, Canis lupus familiaris; design: dose 2.5 mg/kg, route oral; conditions: plasma
[2] = Oral bioavailability in dog at 2.5 mg/kg; format: ADME, organism-based, Canis lupus familiaris; conditions: in vivo
[3] = Cmax in dog at 2.5 mg/kg, po; format: ADME, organism-based, Canis lupus familiaris; design: dose 2.5 mg/kg, route oral; conditions: in vivo
[4] = Half life in dog at 2.5 mg/kg, po; format: ADME, organism-based, Canis lupus familiaris; design: dose 2.5 mg/kg, route oral; conditions: in vivo
[5] = Tmax in dog at 2.5 mg/kg, po; format: ADME, organism-based, Canis lupus familiaris; design: dose 2.5 mg/kg, route oral; conditions: in vivo
[6] = Clearance in dog at 1 mg/kg, iv; format: ADME, organism-based, Canis lupus familiaris; design: dose 1 mg/kg, route intravenous; conditions: in vivo
[7] = Half life in dog at 1 mg/kg, iv; format: ADME, organism-based, Canis lupus familiaris; design: dose 1 mg/kg, route intravenous; conditions: in vivo
[8] = Volume of distribution at steady state in dog at 1 mg/kg, iv; format: ADME, organism-based, Canis lupus familiaris; design: dose 1 mg/kg, route intravenous; conditions: in vivo, read-out: Vdss
[9] = Oral bioavailability in rat at 3 mg/kg; format: ADME, organism-based; conditions: in vivo
[10] = Cmax in rat at 3 mg/kg, po; format: ADME, organism-based; design: dose 3 mg/kg, route oral; conditions: in vivo
[11] = AUC in rat at 3 mg/kg, po; format: ADME, organism-based; design: dose 3 mg/kg, route oral; conditions: plasma
[12] = Tmax in rat at 3 mg/kg, po; format: ADME, organism-based; design: dose 3 mg/kg, route oral; conditions: in vivo
[13] = Clearance in rat at 3 mg/kg, iv; format: ADME, organism-based; design: dose 3 mg/kg, route intravenous; conditions: in vivo
[14] = Half life in rat at 3 mg/kg, po; format: ADME, organism-based; design: dose 3 mg/kg, route oral; conditions: in vivo
[15] = Volume of distribution at steady state in rat at 3 mg/kg, iv; format: ADME, organism-based; design: dose 3 mg/kg, route intravenous; conditions: in vivo, read-out: Vdss
[16] = Metabolic stability in human liver microsomes assessed as compound remaining after 30 mins; format: ADME; conditions: read-out: Stability
[17] = Half life in rat at 3 mg/kg, iv; format: ADME, organism-based; design: dose 3 mg/kg, route intravenous; conditions: in vivo
[18] = Kinetic solubility of the compound in 10 mM of phosphate buffer at pH 7.2 by CLND method; format: physicochemical; conditions: read-out: Kinetic_solubility
[19] = Metabolic stability in rat liver microsomes assessed as compound remaining after 30 mins; format: ADME; conditions: read-out: Stability
[20] = Lipophilicity, log D of the compound at pH 7.4 by HPLC analysis; format: physicochemical; conditions: buffer
Hepatitis C virus [21] = experiment: Ratio of EC50 for HCV1b Con1 infected in human HuH7 cells in presence of 40% human plasma to EC50 for HCV1b Con1 infected in human HuH7 cells in absence of 40% human plasma; format: functional, Hepacivirus hominis, isolate Con1, Huh-7
Hepatitis C virus [22] = experiment: Ratio of EC50 for HCV1a H77 infected in human HuH7 cells in presence of 40% human plasma to EC50 for HCV1a H77 infected in human HuH7 cells in absence of 40% human plasma; format: functional, Hepacivirus hominis, genotype 1a H77, Huh-7
Hepatitis C virus [23] = experiment: Antiviral activity against HCV1b Con1 infected in human HuH7 cells assessed as inhibition of viral replication after 4 days by luciferase reporter gene assay in presence of 40% human plasma; format: functional, organism-based, Hepacivirus hominis; conditions: isolate Con1, Huh-7, Plasma, 96 h
Hepatitis C virus [24] = experiment: Antiviral activity against HCV1a H77 infected in human HuH7 cells assessed as inhibition of viral replication after 4 days by luciferase reporter gene assay in presence of 40% human plasma; format: functional, organism-based, Hepacivirus hominis; conditions: genotype 1a H77, Huh-7, Plasma, 96 h
Hepatitis C virus [25] = experiment: Antiviral activity against HCV1a H77 infected in human HuH7 cells assessed as inhibition of viral replication after 4 days by luciferase reporter gene assay; format: functional, organism-based, Hepacivirus hominis; conditions: genotype 1a H77, Huh-7, 96 h
Hepatitis C virus [26] = experiment: Antiviral activity against HCV1b Con1 infected in human HuH7 cells assessed as inhibition of viral replication after 4 days by luciferase reporter gene assay; format: functional, organism-based, Hepacivirus hominis; conditions: isolate Con1, Huh-7, 96 h

SMILES	bioavailability [9] [%]	Cmax [10] [ng/mL]	AUC [11] [ng·h/mL]	Tmax [12] [h]	clearance [13] [mL/min/kg]	half-life [14] [h]	Vd [15] [L/kg]	remaining at 0.5 h [16] [%]	half-life [17] [h]	solubility kinetic [18] [µM]	remaining at 0.5 h [19] [%]	logD [20]	EC50 (Hepatitis C virus [23]) [nM]	EC50 (Hepatitis C virus [24]) [nM]	EC50 (Hepatitis C virus [25]) [nM]	EC50 (Hepatitis C virus [26]) [nM]	Ratio EC50 (Hepatitis C virus [21])	Ratio EC50 (Hepatitis C virus [22])	other results
COC(=O)N[C@H](C(=O)N1CCC[C@H]1C(=O)Nc1ccc([C@@H]2CC[C@@H](c3ccc(NC(=O)[C@@H]4CCCN4C(=O)[C@@H](NC(=O)OC)C(C)C)cc3)N2c2ccc(C(F)(F)F)cc2)cc1)C(C)C	16	30	500	2.2	20	12.1	8.9	52	6	3.4 (≈ 3.08 µg/mL)	56	4.8	0.072	0.65	0.057	0.0071	10	11	AUC [1]: 850 ng·h/mL; bioavailability [2]: 5.5%; Cmax [3]: 70 ng/mL; half-life [4]: 5.8 h; Tmax [5]: 4.7 h; clearance [6]: 2.67 mL/min/kg; half-life [7]: 6 h; Vd [8]: 1.3 L/kg
COC(=O)N[C@H](C(=O)N1CCC[C@H]1C(=O)Nc1ccc([C@H]2CC[C@H](c3ccc(NC(=O)[C@@H]4CCCN4C(=O)[C@@H](NC(=O)OC)C(C)(C)C)cc3)N2c2ccc(C(C)(C)C)cc2)cc1)C(C)(C)C	7.2	90	1390	2.5	2.83	12.4	1.7	80	10.2	2.2 (≈ 2.03 µg/mL)	83	–	0.344	4.31	0.123	0.0084	–	–	–
COC(=O)N[C@H](C(=O)N1CCC[C@H]1C(=O)Nc1ccc([C@H]2CC[C@H](c3ccc(NC(=O)[C@@H]4CCCN4C(=O)[C@@H](NC(=O)OC)C(C)C)cc3)N2c2ccc(C(C)(C)C)cc2)cc1)C(C)C	3.1	20	220	4.7	7.17	8.6	2.2	–	5.5	1.8 (≈ 1.61 µg/mL)	65	5.2	0.09	0.986	0.138	0.0088	10	7	–
COC(=O)N[C@H](C(=O)N1CCC[C@H]1C(=O)Nc1ccc([C@@H]2CC[C@@H](c3ccc(NC(=O)[C@@H]4CCCN4C(=O)[C@@H](NC(=O)OC)C(C)(C)C)cc3)N2c2ccc(C(C)(C)C)cc2)cc1)C(C)(C)C	7.2	90	1250	5.3	2.83	11	2.3	78	8.2	1.2 (≈ 1.11 µg/mL)	87	–	0.117	1.06	0.021	0.0022	–	–	–
COC(=O)N[C@H](C(=O)N1CCC[C@H]1C(=O)Nc1ccc([C@H]2CC[C@H](c3ccc(NC(=O)[C@@H]4CCCN4C(=O)[C@@H](NC(=O)OC)C(C)C)cc3)N2c2ccc(C(F)(F)F)cc2)cc1)C(C)C	13	200	1360	1.5	4.83	4.9	1.3	58	4.2	3.2 (≈ 2.9 µg/mL)	58	4.9	0.077	2.55	0.299	0.0062	12	9	AUC [1]: 370 ng·h/mL; bioavailability [2]: 4.2%; Cmax [3]: 50 ng/mL; half-life [4]: 5.5 h; Tmax [5]: 1.7 h; clearance [6]: 4.83 mL/min/kg; half-life [7]: 4.4 h; Vd [8]: 1.5 L/kg
COC(=O)N[C@H](C(=O)N1CCC[C@H]1C(=O)Nc1ccc([C@@H]2CC[C@@H](c3ccc(NC(=O)[C@@H]4CCCN4C(=O)[C@@H](NC(=O)OC)C(C)(C)C)cc3)N2c2ccc(F)cc2)cc1)C(C)(C)C	23	110	1850	3	< 6.5	–	–	52	–	4.4 (≈ 3.89 µg/mL)	56	5.2	0.528	15.5	0.263	0.006	88	59	–

Further lines, with some results ahead:

bioavailability [9] [%]	Cmax [10] [ng/mL]	AUC [11] [ng·h/mL]	Tmax [12] [h]	clearance [13] [mL/min/kg]	half-life [14] [h]	Vd [15] [L/kg]	remaining at 0.5 h [16] [%]	half-life [17] [h]	solubility kinetic [18] [µM]	remaining at 0.5 h [19] [%]	logD [20]	EC50 (Hepatitis C virus [23]) [nM]	EC50 (Hepatitis C virus [24]) [nM]	EC50 (Hepatitis C virus [25]) [nM]	EC50 (Hepatitis C virus [26]) [nM]	SMILES	Ratio EC50 (Hepatitis C virus [21])	Ratio EC50 (Hepatitis C virus [22])	other results
15	120	170	0.5	45	0.9	0.9	48	0.4	7.7 (≈ 6.84 µg/mL)	46	3	1.33	1.95	0.794	0.134	COC(=O)N[C@H](C(=O)N1CCC[C@H]1C(=O)Nc1ccc([C@H]2CC[C@H](c3ccc(NC(=O)[C@@H]4CCCN4C(=O)[C@@H](NC(=O)OC)[C@@H](C)OC)cc3)N2c2ccc(F)cc2)cc1)[C@@H](C)OC	10	2	–
22	190	750	1	15	3	2.4	44	2.6	4.1 (≈ 3.51 µg/mL)	49	4.6	0.184	3.68	0.396	0.012	COC(=O)N[C@H](C(=O)N1CCC[C@H]1C(=O)Nc1ccc([C@@H]2CC[C@@H](c3ccc(NC(=O)[C@@H]4CCCN4C(=O)[C@@H](NC(=O)OC)C(C)C)cc3)N2c2ccc(F)cc2)cc1)C(C)C	15	9	–
3.2	30	20	0.3	66.7	0.5	1.5	47	0.8	8.5 (≈ 7.75 µg/mL)	46	3.2	0.917	1.92	0.281	0.106	COC(=O)N[C@H](C(=O)N1CCC[C@H]1C(=O)Nc1ccc([C@H]2CC[C@H](c3ccc(NC(=O)[C@@H]4CCCN4C(=O)[C@@H](NC(=O)OC)[C@H]4CCOC4)cc3)N2c2ccc(F)cc2)cc1)[C@H]1CCOC1	9	7	–
14	70	120	0.7	56.7	1.1	1.3	54	0.6	9.6 (≈ 8.52 µg/mL)	47	3	0.539	1.4	0.168	0.086	COC(=O)N[C@H](C(=O)N1CCC[C@H]1C(=O)Nc1ccc([C@@H]2CC[C@@H](c3ccc(NC(=O)[C@@H]4CCCN4C(=O)[C@@H](NC(=O)OC)[C@@H](C)OC)cc3)N2c2ccc(F)cc2)cc1)[C@@H](C)OC	6	8	–
1.5	20	20	0.4	31.7	0.6	0.5	41	0.9	9.7 (≈ 8.85 µg/mL)	42	3.2	1.27	1.39	0.102	0.054	COC(=O)N[C@H](C(=O)N1CCC[C@H]1C(=O)Nc1ccc([C@@H]2CC[C@@H](c3ccc(NC(=O)[C@@H]4CCCN4C(=O)[C@@H](NC(=O)OC)[C@H]4CCOC4)cc3)N2c2ccc(F)cc2)cc1)[C@H]1CCOC1	24	14	–
